Laboratory results taken from the NIST ThermoML archive (doi:10.1016/j.jct.2014.04.012).
Numbers after ± are expanded uncertainties.

Assay: xn = mol fraction of the nth substance listed
Conditions: 101.3 kPa, Liquid, Pycnometric method

mass density (293.15 K, x2 = 0.2)	mass density (293.15 K, x2 = 0.25)	mass density (303.15 K, x2 = 0.2)	mass density (303.15 K, x2 = 0.25)	mass density (313.15 K, x2 = 0.2)	mass density (313.15 K, x2 = 0.25)	mass density (323.15 K, x2 = 0.2)	mass density (323.15 K, x2 = 0.25)	Structure (SMILES)	mass density (293.15 K, x1 = 0.2)	mass density (293.15 K, x1 = 0.25)	mass density (303.15 K, x1 = 0.2)	mass density (303.15 K, x1 = 0.25)	mass density (313.15 K, x1 = 0.2)	mass density (313.15 K, x1 = 0.25)	mass density (323.15 K, x1 = 0.2)	mass density (323.15 K, x1 = 0.25)	mass density (293.15 K, x1 = 0.333)	mass density (303.15 K, x1 = 0.333)	mass density (313.15 K, x1 = 0.333)	mass density (323.15 K, x1 = 0.333)
								C[N+](C)(C)CCO.[Cl-] [choline chloride] + OCCOCCO	1120.3 ± 1 kg/m3	1122.4 ± 1 kg/m3	1113 ± 1 kg/m3	1117.9 ± 1 kg/m3	1108.9 ± 1 kg/m3	1113 ± 1 kg/m3	1103.2 ± 1 kg/m3	1108.3 ± 1 kg/m3				
								C[N+](C)(C)CCO.[Cl-] [choline chloride] + Oc1ccccc1	1091.3 ± 1 kg/m3	1092.7 ± 1 kg/m3	1085.1 ± 1 kg/m3	1087.3 ± 1 kg/m3	1081.1 ± 1 kg/m3	1083.9 ± 1 kg/m3	1076 ± 1 kg/m3	1079.5 ± 1 kg/m3	1096.6 ± 1 kg/m3	1093.8 ± 1 kg/m3	1087.2 ± 1 kg/m3	1082.5 ± 1 kg/m3
1120.3 ± 1.1 kg/m3	1133.1 ± 1.1 kg/m3	1114.6 ± 1.1 kg/m3	1126.2 ± 1.1 kg/m3	1108.9 ± 1.1 kg/m3	1119.3 ± 1.1 kg/m3	1103.2 ± 1.1 kg/m3	1112.4 ± 1.1 kg/m3	OCCOCCOCCO [triethylene glycol] + C[N+](C)(C)CCO.[Cl-]												
